Results taken from DBAASP.
Converted amounts (≈) assume the structure as drawn. “And” between values parts separate entries of the source, which are not always exact repeats. Equal values may be shown once. Each block holds one compound with its values, some of them ahead of it.

Experiments:
Experiment in all cases: ≥ marks a high value that may be exact or a test limit, other limits are often not marked, values filed in µg/mL are converted to µM
Klebsiella aerogenes = test system: Klebsiella aerogenes
[1] = test system: Staphylococcus epidermidis
Pseudomonas aeruginosa = test system: Pseudomonas aeruginosa
Staphylococcus aureus = test system: Staphylococcus aureus
[2] = test system: Staphylococcus haemolyticus
Klebsiella oxytoca = test system: Klebsiella oxytoca
Serratia marcescens = test system: Serratia marcescens
Enterobacter cloacae = test system: Enterobacter cloacae
[3] = test system: Escherichia coli ATCC 35218
Proteus mirabilis = test system: Proteus mirabilis
[4] = test system: Staphylococcus saprophyticus
Acinetobacter baumannii = test system: Acinetobacter baumannii
Salmonella enterica = test system: Salmonella enterica
Klebsiella pneumoniae = test system: Klebsiella pneumoniae
[5] = test system: Escherichia coli DSM 1116
[6] = test system: Franconibacter helveticus DSM 18390
[7] = test system: Staphylococcus xylosus DSM 20267
Escherichia coli BL21 = test system: Escherichia coli BL21
[8] = test system: Staphylococcus aureus FusA88700
[9] = test system: Staphylococcus aureus FDA486
Escherichia coli MG1655 = test system: Escherichia coli MG1655
[10] = test system: Staphylococcus aureus ATCC 29213
[11] = test system: Staphylococcus aureus ATCC 6538
[12] = test system: Candida albicans ATCC 10231
[13] = test system: Staphylococcus hominis ATCC 27844
[14] = test system: Escherichia coli ATCC 25922
[15] = test system: Pseudomonas aeruginosa ATCC 15442
[16] = test system: Enterococcus faecalis ATCC 2912
[17] = test system: Staphylococcus epidermidis NBRC 12993
[18] = test system: Candida viswanathii NBRC 10321
[19] = test system: Aspergillus oryzae NBRC 100959
[20] = test system: Micrococcus luteus NBRC 3333
[21] = test system: Escherichia coli NBRC 3972
[22] = test system: Staphylococcus aureus NCTC 12493
[23] = test system: Klebsiella pneumoniae ATCC 43816
[24] = test system: Candida albicans NCTC 1467
[25] = test system: Pseudomonas aeruginosa ATCC 27853
[26] = test system: Staphylococcus aureus NCTC 10788
[27] = test system: Escherichia coli NCTC 10418
[28] = test system: Enterococcus faecalis NCTC 12697
Staphylococcus aureus MR = test system: Staphylococcus aureus MR
[29] = test system: Enterococcus faecalis CECT 481
[30] = test system: Streptococcus agalactiae CECT 183T
[31] = test system: Staphylococcus aureus CECT 435

SMILES: CC[C@H](C)[C@H](NC(=O)[C@H](Cc1ccc(O)cc1)NC(=O)[C@H](Cc1ccc(O)cc1)NC(=O)[C@H](CO)NC(=O)CNC(=O)CNC(=O)[C@H](CC(N)=O)NC(=O)[C@H](CCCN=C(N)N)NC(=O)[C@H](CC(C)C)NC(=O)[C@@H](N)Cc1ccccc1)C(=O)N[C@H](C(=O)N1CCC[C@H]1C(=O)N[C@@H](C)C(=O)N[C@@H](Cc1ccccc1)C(=O)N[C@@H](CCCN=C(N)N)C(=O)NCC(=O)N[C@@H](CCCCN)C(=O)NCC(=O)O)C(C)C [FLRNGGSYYIVPAFRGKG]
- MIC (Klebsiella aerogenes): 10 µM (≈ 20 µg/mL)
- MIC [1]: 10 µM (≈ 20 µg/mL)
- MIC (Pseudomonas aeruginosa): > 10 µM
- MIC (Staphylococcus aureus): > 10 µM
- MIC [2]: 10 µM (≈ 20 µg/mL)
- MIC (Klebsiella oxytoca): 10 µM (≈ 20 µg/mL)
- MIC (Serratia marcescens): 10 µM (≈ 20 µg/mL)
- MIC (Enterobacter cloacae): 10 µM (≈ 20 µg/mL)
- MIC [3]: 10 µM (≈ 20 µg/mL)
- MIC (Proteus mirabilis): 10 µM (≈ 20 µg/mL)
- MIC [4]: 10 µM (≈ 20 µg/mL)
- MIC (Acinetobacter baumannii): 10 µM (≈ 20 µg/mL)
- MIC (Salmonella enterica): 10 µM (≈ 20 µg/mL)
- MIC (Klebsiella pneumoniae): > 10 µM

SMILES: CC(C)C[C@H](NC(=O)[C@H](CCCCN)NC(=O)[C@H](CC(C)C)NC(=O)[C@H](CCCCN)NC(=O)[C@H](CC(C)C)NC(=O)[C@H](CCCCN)NC(=O)[C@H](CC(C)C)NC(=O)[C@H](CCCCN)NC(=O)[C@H](CC(C)C)NC(=O)[C@@H](N)CCCCN)C(N)=O [KLKLKLKLKL]
- MIC [5]: 6.53 µM and 3.27 µM
- MIC [6]: 3.27 µM and 1.63 µM
- MIC [7]: 1.63 µM (≈ 2 µg/mL)

SMILES: CC[C@H](C)[C@H](NC(=O)[C@H](CCCCN)NC(=O)[C@H](CCCN=C(N)N)NC(=O)[C@H](CCCCN)NC(=O)[C@H](CCCCN)NC(=O)[C@H](CCCCN)NC(=O)[C@H](Cc1c[nH]c2ccccc12)NC(=O)[C@H](CCCCN)NC(=O)[C@@H](NC(=O)[C@H](CC(C)C)NC(=O)[C@H](Cc1c[nH]c2ccccc12)NC(=O)[C@H](CCCN=C(N)N)NC(=O)[C@H](CC(=O)O)NC(=O)[C@H](CCSC)NC(C)=O)C(C)C)C(=O)N[C@@H](CCCN=C(N)N)C(=O)N[C@@H](CCCN=C(N)N)C(=O)N[C@@H](CCCN=C(N)N)C(=O)N[C@@H](CCCN=C(N)N)C(=O)N[C@@H](CCCN=C(N)N)C(=O)N[C@@H](CCCN=C(N)N)C(=O)N[C@@H](CCCN=C(N)N)C(=O)N[C@@H](CCCN=C(N)N)C(=O)N[C@@H](CCCN=C(N)N)C(=O)N[C@@H](CCCN=C(N)N)C(=O)N[C@@H](CCCN=C(N)N)C(N)=O [MDRWLVKWKKKRKIRRRRRRRRRRR]
- MIC [1]: 3 µM (≈ 11 µg/mL)
- MIC (Escherichia coli BL21): 5 µM (≈ 18.4 µg/mL)
- MIC [8]: 3 µM (≈ 11 µg/mL)
- MIC (Staphylococcus aureus): 3 µM (≈ 11 µg/mL)
- MIC [9]: 3 µM (≈ 11 µg/mL)
- MIC (Escherichia coli MG1655): 11 µM (≈ 40.4 µg/mL)
- MIC [10]: 3 µM (≈ 11 µg/mL)

SMILES: CSCC[C@H](NC(=O)[C@H](CCCCN)NC(=O)[C@@H](NC(=O)[C@H](CCCN=C(N)N)NC(=O)[C@H](CCCCN)NC(=O)[C@H](Cc1c[nH]c2ccccc12)NC(=O)[C@H](Cc1ccccc1)NC(=O)[C@H](CCCN=C(N)N)NC(=O)[C@H](CCCCN)NC(=O)[C@H](CC(C)C)NC(=O)[C@H](CCCCN)NC(=O)[C@@H](N)CCCN=C(N)N)C(C)C)C(=O)O [RKLKRFWKRVKM]
- MIC [17]: 14.9 µM (≈ 25 µg/mL)
- MIC [18]: 29.8 µM (≈ 50 µg/mL)
- MIC [19]: 14.9 µM (≈ 25 µg/mL)
- MIC [20]: 29.8 µM (≈ 50 µg/mL)
- MIC [21]: ≥ 239 µM

Continued, values first:

- MIC [11]: > 40 µM
- MIC [12]: 13.5 µM (≈ 20 µg/mL)
- MIC [13]: 8.3 µM (≈ 12.3 µg/mL)
- MIC [14]: 2.1 µM (≈ 3.11 µg/mL)
- MIC [15]: 2.1 µM (≈ 3.11 µg/mL)
- MIC [16]: 8.3 µM (≈ 12.3 µg/mL)
SMILES: CSCC[C@H](NC(=O)[C@H](CCCN=C(N)N)NC(=O)[C@H](CO)NC(=O)CNC(=O)[C@H](CCCCN)NC(=O)[C@@H](N)CCCN=C(N)N)C(=O)NCC(=O)N[C@@H](CCCCN)C(=O)N[C@@H](CCCCN)C(=O)N[C@@H](CS)C(=O)N[C@@H](CCC(=O)O)C(=O)N[C@@H](CS)C(=O)N1CCC[C@H]1C(=O)O [RKGSRMGKKCECP]

- MIC [22]: ≥ 32 µM
- MIC [23]: ≥ 32 µM
- MIC [24]: ≥ 64 µM
- MIC [25]: 64 µM (≈ 174 µg/mL)
- MIC [26]: 8 µM (≈ 21.8 µg/mL)
- MIC [27]: 8 µM (≈ 21.8 µg/mL)
- MIC [28]: ≥ 32 µM
SMILES: CSCC[C@H](NC(=O)[C@H](CCC(=O)O)NC(=O)[C@H](CCCCN)NC(=O)[C@H](CC(C)C)NC(=O)[C@H](CCCCN)NC(=O)CNC(=O)[C@H](Cc1c[nH]c2ccccc12)NC(=O)[C@H](CC(C)C)NC(=O)[C@@H](N)CO)C(=O)N[C@@H](C)C(=O)N[C@@H](C)C(=O)N[C@@H](C)C(=O)N[C@@H](C)C(=O)NCC(=O)N[C@@H](CCCCN)C(=O)N[C@@H](C)C(=O)N[C@@H](C)C(=O)N[C@@H](CC(C)C)C(=O)N[C@@H](CC(N)=O)C(=O)N[C@@H](C)C(=O)N[C@H](C(=O)N[C@@H](CC(N)=O)C(=O)NCC(=O)N[C@@H](CC(C)C)C(=O)N[C@H](C(=O)N[C@@H](CC(N)=O)C(=O)N[C@@H](CCC(N)=O)C(N)=O)C(C)C)C(C)C [SLWGKLKEMAAAAGKAALNAVNGLVNQ]

- MIC (Staphylococcus aureus MR): ≥ 47.5 µM
- MIC [29]: ≥ 47.5 µM
- MIC [30]: ≥ 95.1 µM
- MIC [31]: ≥ 47.5 µM
SMILES: CC[C@H](C)[C@H](NC(=O)[C@H](CC(C)C)NC(=O)[C@@H](NC(=O)[C@@H](NC(=O)[C@@H]1CCCN1C(=O)[C@H](CS)NC(=O)[C@H](CO)NC(=O)CNC(=O)[C@@H]1CCCN1C(=O)[C@H](CCCCN)NC(=O)[C@@H](NC(=O)[C@H](CO)NC(=O)[C@@H](NC(=O)[C@@H]1CCCN1C(=O)CNC(=O)[C@H](CCCCN)NC(=O)[C@@H](NC(=O)[C@@H]1CCCN1C(=O)[C@H](CCC(=O)O)NC(=O)[C@H](CCC(N)=O)NC(=O)[C@H](C)NC(=O)[C@H](CCCCN)NC(=O)[C@@H](N)C(C)C)C(C)C)C(C)C)[C@@H](C)O)[C@@H](C)CC)[C@@H](C)CC)C(=O)N[C@@H](CCCN=C(N)N)C(=O)N[C@@H](CS)C(=O)N[C@@H](C)C(=O)O [VKAQEPVKGPVSTKPGSCPIILIRCA]
